The values below come from ChEMBL document CHEMBL3616371, “Synthesis of BF₃ catalyzed Mannich derivatives with excellent ee from phenylpropanolamine, study of their antimicrobial activity and molecular docking” (2015).

A word on the MIC: it is the smallest concentration in the dilution series that meets the test's criterion for growth inhibition. Read a high MIC as weaker potency.

The test system of test [1] is Klebsiella pneumoniae. Description: Antibacterial activity against Klebsiella pneumoniae assessed as growth inhibition at 1 mg/well after 24 hrs by Well method. Type of test: functional.
In test [2] the test system is Staphylococcus aureus. In words: Antibacterial activity against Staphylococcus aureus after 24 hrs by two fold serial dilution method. It is filed as functional.
For test [3], the system named is Staphylococcus aureus. Description: Antibacterial activity against methicillin-resistant Staphylococcus aureus after 24 hrs by two fold serial dilution method. Type of test: functional.
Test [4] has as its system Pseudomonas aeruginosa. Description: Antibacterial activity against Pseudomonas aeruginosa assessed as growth inhibition at 1 mg/well after 24 hrs by Well method. It is filed as functional.
Test [5] deals with Micrococcus luteus. In words: Antibacterial activity against Micrococcus luteus assessed as growth inhibition at 1 mg/well after 24 hrs by Well method. It is filed as functional.
Test [6] relates to Klebsiella aerogenes. Description: Antibacterial activity against Enterobacter aerogenes assessed as growth inhibition at 1 mg/well after 24 hrs by Well method. It is filed as functional.
Test [7] deals with Salmonella typhimurium. Description: Antibacterial activity against Salmonella typhimurium after 24 hrs by two fold serial dilution method. The following applies: Salmonella enterica. Type of test: functional, Salmonella enterica subsp. enterica serovar Typhimurium.
In test [8] the test system is Salmonella enterica subsp. enterica serovar Paratyphi B. Description: Antibacterial activity against Salmonella paratyphi B assessed as growth inhibition at 1 mg/well after 24 hrs by Well method. Type of test: functional.
The test system of test [9] is Staphylococcus aureus. Description: Antibacterial activity against methicillin-resistant Staphylococcus aureus assessed as growth inhibition at 1 mg/well after 24 hrs by Well method. Type of test: functional.
In test [10] the test system is Klebsiella pneumoniae. Description: Antibacterial activity against Klebsiella pneumoniae after 24 hrs by two fold serial dilution method. Type of test: functional.
The test system of test [11] is Bacillus subtilis. In words: Antibacterial activity against Bacillus subtilis after 24 hrs by two fold serial dilution method. Type of test: functional.
In test [12] the test system is Micrococcus luteus. Description: Antibacterial activity against Micrococcus luteus after 24 hrs by two fold serial dilution method. It is filed as functional.
Test [13] concerns Salmonella typhimurium. In words: Antibacterial activity against Salmonella typhimurium assessed as growth inhibition at 1 mg/well after 24 hrs by Well method. It is filed as functional, Salmonella enterica subsp. enterica serovar Typhimurium.
The subject of test [14] is Proteus vulgaris. In words: Antibacterial activity against Proteus vulgaris assessed as growth inhibition at 1 mg/well after 24 hrs by Well method. Type of test: functional.
Test [15] relates to Bacillus subtilis. In words: Antibacterial activity against Bacillus subtilis assessed as growth inhibition at 1 mg/well after 24 hrs by Well method. Type of test: functional.
Test [16] relates to Proteus vulgaris. Description: Antibacterial activity against Proteus vulgaris after 24 hrs by two fold serial dilution method. Type of test: functional.
Test [17] has as its system Klebsiella aerogenes. Description: Antibacterial activity against Enterobacter aerogenes after 24 hrs by two fold serial dilution method. Type of test: functional.
The subject of test [18] is Pseudomonas aeruginosa. Description: Antibacterial activity against Pseudomonas aeruginosa after 24 hrs by two fold serial dilution method. It is filed as functional.
Test [19] has as its system Salmonella enterica subsp. enterica serovar Paratyphi B. In words: Antibacterial activity against Salmonella paratyphi B after 24 hrs by two fold serial dilution method. Type of test: functional.
Test [20] has as its system Shigella flexneri. Description: Antibacterial activity against Shigella flexneri assessed as growth inhibition at 1 mg/well after 24 hrs by Well method. It is filed as functional.
Test [21] concerns Staphylococcus aureus. Description: Antibacterial activity against Staphylococcus aureus assessed as growth inhibition at 1 mg/well after 24 hrs by Well method. Type of test: functional.
In test [22] the test system is Shigella flexneri. Description: Antibacterial activity against Shigella flexneri after 24 hrs by two fold serial dilution method. It is filed as functional.
For test [23], the system named is Staphylococcus epidermidis. In words: Antibacterial activity against Staphylococcus epidermidis assessed as growth inhibition at 1 mg/well after 24 hrs by Well method. Type of test: functional.
Test [24] relates to Staphylococcus epidermidis. Description: Antibacterial activity against Staphylococcus epidermidis after 24 hrs by two fold serial dilution method. It is filed as functional.
Test [25] concerns Malassezia pachydermatis. Description: Antifungal activity against Malassezia pachydermatis assessed as growth inhibition at 1 mg/well after 48 hrs by Well method. Type of test: functional.
Test [26] has as its system Aspergillus flavus. In words: Antifungal activity against Aspergillus flavus after 48 to 72 hrs by two fold serial dilution method. It is filed as functional.
Test [27] has as its system Aspergillus flavus. In words: Antifungal activity against Aspergillus flavus assessed as growth inhibition at 1 mg/well after 48 hrs by Well method. Type of test: functional.

≈ marks a conversion by molar mass, not a printed value. A value given as a limit tells only on which side of the number the result lay.

In the case of `CN[C@@H]1[C@H](O[C@H]2[C@H](O[C@H]3[C@H](O)[C@@H](O)[C@H](N=C(N)N)[C@@H](O)[C@@H]3N=C(N)N)O[C@@H](C)[C@]2(O)C=O)O[C@@H](CO)[C@H](O)[C@H]1O` [STREPTOMYCIN], the “inhibition zone (IZ)” value was 20 mm in [1]; 30 mm in [4]; 26 mm in test [5]; 22 mm in test [6]; 18 mm in [8]; 30 mm in test [9]. Also, the “inhibition zone (IZ)” value in [13] amounted to 24 mm; in test [14], 30 mm; in test [15] it was 22 mm; in [20], 30 mm; in test [21] it was 14 mm. Further, the MIC in test [2] turned out to be 6.25 µg/mL (≈ 10.7 µM); in [3] it was 6.25 µg/mL (≈ 10.7 µM); in test [7] it was 6.25 µg/mL (≈ 10.7 µM); in test [10], 25 µg/mL (≈ 43 µM); in test [11], 25 µg/mL (≈ 43 µM); in [12], 6.25 µg/mL (≈ 10.7 µM). Further, the MIC in [16] worked out at 6.25 µg/mL (≈ 10.7 µM); in test [17], 25 µg/mL (≈ 43 µM); in test [18], 25 µg/mL (≈ 43 µM); in [19] it was 30 µg/mL (≈ 51.6 µM); in test [22], 6.25 µg/mL (≈ 10.7 µM).
For `C[C@@H](NCCC(=O)c1ccc(Cl)cc1Cl)[C@@H](O)c1ccccc1.Cl`, the MIC in test [2] is 3.13 µg/mL; in test [3], 3.13 µg/mL; in [7] it was 3.13 µg/mL; in test [24], 3.13 µg/mL; in test [11], 6.25 µg/mL; in [12] it was 6.25 µg/mL. The MIC in [16] came out at 3.13 µg/mL; in [17] it was 3.13 µg/mL; in [18], 6.25 µg/mL; in [19] it was 50 µg/mL; in [22], 3.13 µg/mL. Further, the “inhibition zone (IZ)” value in test [4] was found to be 24 mm; in test [23], 34 mm; in test [5], 28 mm; in test [6] it was 35 mm; in test [8], 16 mm; in [9] it was 34 mm. Besides, the “inhibition zone (IZ)” value worked out at 34 mm in [13]; 33 mm in test [14]; 26 mm in [15]; 32 mm in test [20]; 37 mm in test [21].
For `C[C@H](NCCC(=O)c1ccc(Cl)cc1)[C@H](O)c1ccccc1.Cl`, the “inhibition zone (IZ)” value in [1] amounted to 11 mm; in [25], 12 mm; in test [4], 20 mm; in test [23], 28 mm; in test [5], 28 mm; in [6], 25 mm. Moreover, the “inhibition zone (IZ)” value in test [9] turned out to be 29 mm; in test [13], 24 mm; in test [14] it was 25 mm; in test [15] it was 19 mm; in test [20] it was 22 mm; in test [27], 15 mm. For the same compound, in test [21], the “inhibition zone (IZ)” value was 26 mm. Also, the MIC was found to be 50 µg/mL in test [2]; 25 µg/mL in test [3]; 50 µg/mL in [26]; 50 µg/mL in test [7]; 50 µg/mL in test [10]; 25 µg/mL in test [24]. Further, the MIC in [11] is 25 µg/mL; in [12], 50 µg/mL; in test [16] it was 25 µg/mL; in [17], 50 µg/mL; in test [18], 25 µg/mL; in test [19] it was above 50 µg/mL. The compound also yielded an MIC in test [22] of 25 µg/mL.
